Assay results published in patent publication US20160220569A1, “CDK4/6 Inhibitor Dosage Formulations For The Protection Of Hematopoietic Stem And Progenitor Cells During Chemotherapy” (G1 Therapeutics, Inc., priority 2015, published 2016).
Where “and” joins values, the source holds several entries; their conditions need not be identical. Identical values can stand only once. Like-named read-outs stand apart in the source and are kept apart here.

Experiment: Single escalating dose IV infusion pharmacokinetics in healthy volunteers (noncompartmental)
Format: in vivo, human
Conditions: for HL_Lambda_z / highest (peak) concentration: individual subjects; for HL_Lambda_z: WinNonlin noncompartmental analysis, in h
Experimental: Forty-five subjects have enrolled in the study.
Analysis of plasma concentration versus time data for calculation of standard pharmacokinetic (PK) parameters following intravenous infusion administration was conducted using Phoenix WinNonlin version 6.3 using a nominal infusion duration and scheduled blood sampling times. Random subject numbers were assigned by the bioanalytical laboratory to retain the blind.
(§1) Analysis of plasma concentration versus time data for calculation of standard pharmacokinetic (PK) parameters following intravenous infusion administration was conducted using Phoenix WinNonlin version 6.3 using a nominal infusion duration and scheduled blood sampling times.
as §1

[1] = Cohort 2, 12 mg/m^2 IV, r6-8=Subjects 1-3,r10=Mean,r12=Min,r13=Median,r14=Max,r16=Geometric Mean, geometric mean
[2] = Cohort 2, 12 mg/m^2 IV, r6-8=Subjects 1-3,r10=Mean,r12=Min,r13=Median,r14=Max,r16=Geometric Mean, mean
[3] = Cohort 2, 12 mg/m^2 IV, r6-8=Subjects 1-3,r10=Mean,r12=Min,r13=Median,r14=Max,r16=Geometric Mean, median
[4] = Cohort 3, 24 mg/m^2 IV, r6-8=Subjects 1-3,r10=Mean,r12=Min,r13=Median,r14=Max,r16=Geometric Mean, geometric mean
[5] = Cohort 3, 24 mg/m^2 IV, r6-8=Subjects 1-3,r10=Mean,r12=Min,r13=Median,r14=Max,r16=Geometric Mean, maximum
[6] = Cohort 3, 24 mg/m^2 IV, r6-8=Subjects 1-3,r10=Mean,r12=Min,r13=Median,r14=Max,r16=Geometric Mean, mean
[7] = Cohort 3, 24 mg/m^2 IV, r6-8=Subjects 1-3,r10=Mean,r12=Min,r13=Median,r14=Max,r16=Geometric Mean, median
[8] = Cohort 3, 24 mg/m^2 IV, r6-8=Subjects 1-3,r10=Mean,r12=Min,r13=Median,r14=Max,r16=Geometric Mean, minimum
[9] = Cohort 4, 48 mg/m^2 IV, r6-8=Subjects 1-3,r10=Mean,r12=Min,r13=Median,r14=Max,r16=Geometric Mean, geometric mean
[10] = Cohort 4, 48 mg/m^2 IV, r6-8=Subjects 1-3,r10=Mean,r12=Min,r13=Median,r14=Max,r16=Geometric Mean, maximum
[11] = Cohort 4, 48 mg/m^2 IV, r6-8=Subjects 1-3,r10=Mean,r12=Min,r13=Median,r14=Max,r16=Geometric Mean, mean
[12] = Cohort 4, 48 mg/m^2 IV, r6-8=Subjects 1-3,r10=Mean,r12=Min,r13=Median,r14=Max,r16=Geometric Mean, median
[13] = Cohort 4, 48 mg/m^2 IV, r6-8=Subjects 1-3,r10=Mean,r12=Min,r13=Median,r14=Max,r16=Geometric Mean, minimum
[14] = Cohort 5, 96 mg/m^2, 30-minute IV infusion, noncompartmental, subjects 1-6, Mean, Min, Median, Max, Geometric Mean, minimum

Question: With CN1CCN(c2ccc(Nc3ncc4cc5n(c4n3)C3(CCCCC3)CNC5=O)nc2)CC1 [Compound 1, 2′-((5-(4-methylpiperazin-1-yl)pyridin-2-yl)amino)-7′,8′-dihydro-6′H-spiro[cyclohexane-1,9′-pyrazino[1′,2′:1,5]pyrrolo[2,3-d]pyrimidin]-6′-one] as the compound, how does the HL_Lambda_z (Cohort 1, 6 mg/m^2) read?
Answer: 6.358 and 3.5207 and 4.7366

Question: What about the “highest (peak) concentration” value (Cohort 1, 6 mg/m^2 IV) of the same compound?
Answer: 42.7 ng/mL and 42.9 ng/mL and 60.5 ng/mL

Question: And the “Clearance (CL)” value (Cohort 1, 6 mg/m^2 IV, mean)?
Answer: 91.4 L/h/m^2

Question: What about the “volume of distribution at steady state (Vss) averaging” value (shortened to “volume of distribution”) (Cohort 1, 6 mg/m^2 IV, mean) of the same compound?
Answer: 358 L/m^2

Question: What about the HL_Lambda_z (Cohort 2, 12 mg/m^2) of the same compound?
Answer: 7.5562 and 8.8853

Question: And the “highest (peak) concentration” value (Cohort 2, 12 mg/m^2 IV)?
Answer: 87.4 ng/mL and 136 ng/mL

Question: And the “Clearance (CL)” value (Cohort 2, 12 mg/m^2 IV, mean)?
Answer: 83.5 L/h/m^2

Question: What about the “volume of distribution” value (Cohort 2, 12 mg/m^2 IV, mean) of the same compound?
Answer: 461 L/m^2

Question: What about the AUCinf [1] of the same compound?
Answer: 146 ng·h/mL

Question: What about the CL [1] of the same compound?
Answer: 82.4 L/h/m^2

Question: What about the Cmax [1] of the same compound?
Answer: 119 ng/mL

Question: What about the MRTinf [1] of the same compound?
Answer: 5.51 h

Question: What about the Tmax [1] of the same compound?
Answer: 0.397 h

Question: And the Vss [1]?
Answer: 454 L/m^2

Question: What about the λz [1] of the same compound?
Answer: 0.0845 h⁻¹

Question: And the CL [2]?
Answer: 83.5 L/h/m^2

Question: What about the Vss [2] of the same compound?
Answer: 461 L/m^2

Question: What about the λz [2] of the same compound?
Answer: 0.0847 h⁻¹

Question: And the AUCinf [3]?
Answer: 136 ng·h/mL

Question: What about the CL [3] of the same compound?
Answer: 88.4 L/h/m^2

Question: What about the Cmax [3] of the same compound?
Answer: 136 ng/mL

Question: What about the MRTinf [3] of the same compound?
Answer: 5.98 h

Question: What about the Vss [3] of the same compound?
Answer: 405 L/m^2

Question: What about the λz [3] of the same compound?
Answer: 0.0844 h⁻¹

Question: What about the HL_Lambda_z (Cohort 3, 24 mg/m^2) of the same compound?
Answer: 13.1458 and 8.6328 and 7.8478

Question: What about the “Clearance (CL)” value (Cohort 3, 24 mg/m^2 IV, mean) of the same compound?
Answer: 90.7 L/h/m^2

Question: And the “volume of distribution” value (Cohort 3, 24 mg/m^2 IV, mean)?
Answer: 562 L/m^2

Question: And the AUClast [4]?
Answer: 253 ng·h/mL

Question: And the Vss [4]?
Answer: 550 L/m^2

Question: What about the λz [4] of the same compound?
Answer: 0.0720 h⁻¹

Question: What about the AUClast [5] of the same compound?
Answer: 337 ng·h/mL

Question: And the Vss [5]?
Answer: 674 L/m^2

Question: What about the λz [5] of the same compound?
Answer: 0.0883 h⁻¹

Question: What about the Vss [6] of the same compound?
Answer: 562 L/m^2

Question: And the λz [6]?
Answer: 0.0738 h⁻¹

Question: What about the AUClast [7] of the same compound?
Answer: 259 ng·h/mL

Question: What about the Vss [7] of the same compound?
Answer: 599 L/m^2

Question: What about the λz [7] of the same compound?
Answer: 0.0803 h⁻¹

Question: What about the AUClast [8] of the same compound?
Answer: 186 ng·h/mL

Question: And the Vss [8]?
Answer: 412 L/m^2

Question: And the λz [8]?
Answer: 0.0527 h⁻¹

Question: And the HL_Lambda_z (Cohort 4, 48 mg/m^2)?
Answer: 10.9028 and 7.2383 and 8.5525

Question: What about the “Clearance (CL)” value (Cohort 4, 48 mg/m^2 IV, mean) of the same compound?
Answer: 96.5 L/h/m^2

Question: And the “volume of distribution” value (Cohort 4, 48 mg/m^2 IV, mean)?
Answer: 771 L/m^2

Question: And the Tmax (Cohort 4, 48 mg/m^2 IV, r6-8=Subjects 1-3,r10=Mean,r12=Min,r13=Median,r14=Max,r16=Geometric Mean)?
Answer: 0.25 h

Question: And the AUCinf [9]?
Answer: 498 ng·h/mL

Question: And the AUClast [9]?
Answer: 452 ng·h/mL

Question: And the CL [9]?
Answer: 96.4 L/h/m^2

Question: What about the MRTinf [9] of the same compound?
Answer: 7.83 h

Question: What about the Tmax [9] of the same compound?
Answer: 0.397 h

Question: And the Vss [9]?
Answer: 754 L/m^2

Question: What about the λz [9] of the same compound?
Answer: 0.0790 h⁻¹

Question: And the AUCinf [10]?
Answer: 524 ng·h/mL

Question: What about the AUClast [10] of the same compound?
Answer: 480 ng·h/mL

Question: And the CL [10]?
Answer: 105 L/h/m^2

Question: What about the Cmax [10] of the same compound?
Answer: 228 ng/mL

Question: And the MRTinf [10]?
Answer: 10.7 h

Question: And the Vss [10]?
Answer: 995 L/m^2

Question: And the λz [10]?
Answer: 0.0958 h⁻¹

Question: And the CL [11]?
Answer: 96.5 L/h/m^2

Question: And the Vss [11]?
Answer: 771 L/m^2

Question: And the λz [11]?
Answer: 0.0801 h⁻¹

Question: And the AUCinf [12]?
Answer: 514 ng·h/mL

Question: What about the AUClast [12] of the same compound?
Answer: 441 ng·h/mL

Question: What about the CL [12] of the same compound?
Answer: 93.3 L/h/m^2

Question: And the Cmax [12]?
Answer: 227 ng/mL

Question: And the MRTinf [12]?
Answer: 7.80 h

Question: What about the Vss [12] of the same compound?
Answer: 715 L/m^2

Question: And the λz [12]?
Answer: 0.0810 h⁻¹

Question: What about the AUCinf [13] of the same compound?
Answer: 459 ng·h/mL

Question: What about the AUClast [13] of the same compound?
Answer: 437 ng·h/mL

Question: And the CL [13]?
Answer: 91.7 L/h/m^2

Question: And the MRTinf [13]?
Answer: 5.76 h

Question: What about the Tmax [13] of the same compound?
Answer: 0.250 h

Question: And the Vss [13]?
Answer: 603 L/m^2

Question: What about the λz [13] of the same compound?
Answer: 0.0636 h⁻¹

Question: And the AUClast (Cohort 5, 96 mg/m^2, 30-minute IV infusion, noncompartmental, subjects 1-6, Mean, Min, Median, Max, Geometric Mean, mean)?
Answer: 1240 ng·h/mL

Question: And the AUClast [14]?
Answer: 1040 ng·h/mL

Question: And the Tmax [14]?
Answer: 0.250 h

Question: What about the maximum mean concentration (Cohort 5, 96 mg/m^2 IV, at the end of infusion (EOI)) of the same compound?
Answer: 874 ng/mL

Question: And the “Clearance (CL)” value (Cohort 5, 96 mg/m^2 IV, mean)?
Answer: 74 L/h/m^2

Question: What about the “volume of distribution” value (Cohort 5, 96 mg/m^2 IV, mean) of the same compound?
Answer: 429 L/m^2

Question: What about the HL_Lambda_z (Cohort 5, received 96 mg/m^2) of the same compound?
Answer: 8.4971 and 10.9427 and 7.5378 and 10.6557 and 7.1128 and 6.9746

Question: What about the “Clearance (CL)” value (Cohort 6, […]^2 IV, mean) of the same compound?
Answer: 62.1 L/h/m^2

Question: And the “volume of distribution” value (Cohort 6, […]^2 IV, mean)?
Answer: 547 L/m^2

Question: And the AUC(0-inf) (both sexes, human, plasma, iv, 6 mg/m2, Cohort 1, 6 mg/m^2 IV, mean, read-out: AUCinf averaged)?
Answer: 67.7 ng·h/mL

Question: And the Cmax (both sexes, human, plasma, iv, 6 mg/m2, Cohort 1, 6 mg/m^2 IV, mean, read-out: Cmax averaged)?
Answer: 50.9 ng/mL

Question: And the Tmax (both sexes, human, plasma, iv, 6 mg/m2, Cohort 1, 6 mg/m^2 IV, mean, read-out: Tmax)?
Answer: 0.33 h

Question: And the half-life (both sexes, human, plasma, iv, 6 mg/m2, Cohort 1, 6 mg/m^2 IV, mean, read-out: average half-life (converted))?
Answer: 4.87 h

Question: And the MRT inf (both sexes, human, plasma, iv, 6 mg/m2, Cohort 1, 6 mg/m^2 IV, r6-8=Subjects 1-3,r10=Mean,r12=Min,r13=Median,r14=Max,r16=Geometric Mean)?
Answer: 4.18 h

Question: What about the AUC(0-inf) (both sexes, human, plasma, iv, 6 mg/m2, Cohort 1, 6 mg/m^2 IV, r6-8=Subjects 1-3,r10=Mean,r12=Min,r13=Median,r14=Max,r16=Geometric Mean, read-out: AUCinf) of the same compound?
Answer: 67.7 ng·h/mL

Question: What about the Cmax (both sexes, human, plasma, iv, 6 mg/m2, Cohort 1, 6 mg/m^2 IV, r6-8=Subjects 1-3,r10=Mean,r12=Min,r13=Median,r14=Max,r16=Geometric Mean, read-out: Cmax) of the same compound?
Answer: 50.9 ng/mL

Question: What about the Tmax (both sexes, human, plasma, iv, 6 mg/m2, Cohort 1, 6 mg/m^2 IV, r6-8=Subjects 1-3,r10=Mean,r12=Min,r13=Median,r14=Max,r16=Geometric Mean, read-out: Tmax) of the same compound?
Answer: 0.333 h

Question: What about the half-life (both sexes, human, plasma, iv, 6 mg/m2, Cohort 1, 6 mg/m^2 IV, r6-8=Subjects 1-3,r10=Mean,r12=Min,r13=Median,r14=Max,r16=Geometric Mean, read-out: t½ (converted)) of the same compound?
Answer: 4.87 h
